Data reported in patent US8889153B2, “Combination of immunomodulator and anti-pathogenic agent” (priority 2008, dated 2014).
Several values for one entry are separate records, joined by “and”; a condition that tells them apart may be missing. Equal entries are not always repeated.

Tests used:
[1] = system: Herpes sp; test: Patients with recurrent herpetic lesions (cutaneous and genital), symptom recurrence; format: in vivo, Herpes virus (host: human patients); settings: Acyclovir alone, oral, 3 daily doses of 200 mg, 10 days
[2] = system: Candida sp; settings: 20 HIV/AIDS patients per group, Fluconazole 400 mg/day × 5 days oral, Immunomodulator 10 mg/day × 5 days i.m.
[3] = system: Plasmodium chabaudi; test: Experimental Plasmodium chabaudi infection, survival and parasitemia; format: in vivo, Plasmodium chabaudi (host: C57BL/6 mice); settings: for Survival/Number of animals: 21 days observation
[4] = system: M. tuberculosis-Erdman; design: species or system Mycobacterium tuberculosis (host: C57BL/6 mice); settings: mouse, in vivo
[5] = system: TH-1 and TH-2 types cytokines (IL-2, IFN-gamma, IL-4, and IL-10); test: Cytokine dosage (sandwich-ELISA, Con-A stimulated spleen culture supernatant) in experimental L. monocytogenes infection; format: in vivo, BALB/c mice
[6] = system: L. monocytogenes; test: Experimental L. monocytogenes infection, lethal dose, survivors at 30 days; format: in vivo, Listeria monocytogenes (host: BALB/c mice); settings: BALB/c mice, n = 10 per group, 2×10^6 L. monocytogenes i.p.; Immunomodulator 100 mg/kg single dose i.p.; Rifampicine 2 mg/kg and Gentamicin 2 mg/kg × 5 days
[7] = system: L. monocytogenes; settings: experimental animals; PI0305373-3, U.S. Ser. No. 10/978,683, EPA 0426250.3.2405; cited from earlier work
[8] = system: HCV subtype I-b; test: Clinical trial in hepatitis C patients, laboratorial parameters; settings: two patients (A and D) of 5; Immunomodulator 25 mg weekly i.m., 12 months; no treatment interruption
[9] = Group D: Chloroquine 5 mg/kg single i.p. dose
[10] = Group E: Chloroquine 2 mg/kg single i.p. dose
[11] = Control (non-infected) BALB/c mice, Immunomodulator 5 mg/kg/day i.p. 7 days
[12] = Infected 48 h (2×10^4 L. monocytogenes i.p.), Immunomodulator 5 mg/kg/day i.p. 7 days prior to inoculation
[13] = Infected 72 h (2×10^4 L. monocytogenes i.p.), Immunomodulator 5 mg/kg/day i.p. 7 days prior to inoculation
[14] = Group G: Immunomodulator 100 mg/kg i.p. single dose

Nc1nc(=O)c2ncn(COCCO)c2[nH]1 [Acyclovir, 2-amino-9-[(2-hydroxyethoxy)methyl]-3,9-dihydro-6H-purin-6-one]
average recurrence period of time of the disease symptoms ([1]; first stage, 30 patients): 2 months | average recurrence period of symptoms ([1]; second stage, 15 patients): 2 months

OC(Cn1cncn1)(Cn1cncn1)c1ccc(F)cc1F [Antifungal]
% Respondents [2]: 100% | Symptoms Average recurrence period ([2]; six months follow-up): 45 days

CCN(CC)CCCC(C)Nc1ccnc2cc(Cl)ccc12 (stereo not drawn) [Chloroquine, N′-(7-chloroquinolin-4-yl)-N,N-diethyl-pentane-1,4-Diamine]
Survival/Number of animals ([3]; Group B: Chloroquine 15 mg/kg single i.p. dose): 6-6 | Parasitemia (%) ± Standart deviation (SD) ([3]; Group B: Chloroquine 15 mg/kg single i.p. dose, day 5): 17 ± 0.7 (day 5) % | Parasitemia (%) ± Standart deviation (SD) ([3]; Group B: Chloroquine 15 mg/kg single i.p. dose, day 21): 8 ± 1.2 (day 21% | increase in survival rate compared to the control groups ([3]; Group D: Chloroquine 5 mg/kg): 2 days | Day of death [3, 9]: 10 days | Survival/Number of animals [3, 9]: 0-6 | Parasitemia (%) ± Standart deviation (SD) ([3]; Group D: Chloroquine 5 mg/kg single i.p. dose, day 5): 65 ± 0.9 (day 5) % | difference in the survival rate to the control groups ([3]; Group E: Chloroquine 2 mg/kg): no significant difference | Day of death [3, 10]: 8 days | Survival/Number of animals [3, 10]: 0-6 | Parasitemia (%) ± Standart deviation (SD) ([3]; Group E: Chloroquine 2 mg/kg single i.p. dose, day 5): 89 ± 1.3 (day 5) %

NNC(=O)c1ccncc1 [INH, pyridine-4-carbohydrazide, reference compound]
Bacillary load - Lung + Standard Deviation (SD) [4]: 3.52 ± 0.65 | Bacillary load - Spleen + Standard Deviation (SD) [4]: 4.82 ± 0.62

proteic aggregate of ammonium and magnesium phospholinoleate-palmitoleate anhydride [Immunomodulator]
IFN-γ [5, 11]: 1012 ± 41 pg/mL | Il-2 [5, 11]: 167 ± 11 pg/mL | Il-4 [5, 11]: 63 ± 19 pg/mL | Il-10 [5, 11]: 227 ± 37 pg/mL | IFN-γ [5, 12]: 1691 ± 62 pg/mL | Il-2 [5, 12]: 206 ± 31 pg/mL | Il-4 [5, 12]: 75 ± 18 pg/mL | Il-10 [5, 12]: 224 ± 17 pg/mL | IFN-γ [5, 13]: 1884 ± 70 pg/mL | Il-2 [5, 13]: 248 ± 34 pg/mL | Il-4 [5, 13]: 73 ± 11 pg/mL | Il-10 [5, 13]: 221 ± 37 pg/mL | % surviving animals - 30 days [6]: 30% | Number surviving animals - 30 days [6]: 3 | Bacillary load - Lung + Standard Deviation (SD) [4]: 5.42 ± 0.59 and 4.85 ± 0.46 | Bacillary load - Spleen + Standard Deviation (SD) [4]: 5.25 ± 0.61 and 4.93 ± 0.47 | Day of death ([3]; Group F: Immunomodulator 5 mg/kg × 5 days): 11 days | Survival/Number of animals ([3]; Group F: Immunomodulator 5 mg/kg × 5 days, start 1 day after infection): 0-6 | Parasitemia (%) ± Standart deviation (SD) ([3]; Group F: Immunomodulator 5 mg/kg × 5 days, day 5): 54 ± 0.8 (day 5) % | Day of death [3, 14]: 12 days | Survival/Number of animals [3, 14]: 0-6 | Parasitemia (%) ± Standart deviation (SD) ([3]; Group G: Immunomodulator 100 mg/kg i.p. single dose, day 5): 52 ± 0.9 (day 5) % | increase in survival rate in relation to the control animals ([3]; Groups F and G: Immunomodulator 5 mg/kg × 5 days and 100 mg/kg single dose): 3 to 4 days | protection against infection by lethal dose of L. monocytogenes [7]: partial protection | tolerance at the site of injection [8]: mild pain and discomfort at the site of injection
